Earlier results on 5 molecules are cited in patent US20190314298A1, “COMPOSITIONS FOR PREVENTING AND RELIEVING HANGOVER & LIVER DAMAGE WHICH OCCUR DUE TO ALCOHOL CONSUMPTION” (priority 2018, published 2019).

The conditions of this data set: biological activities listed in background table.
Regarding `O=C(C=Cc1ccc(O)cc1)CC(=O)C=Cc1ccc(O)cc1` [Bisdemethoxy curcumin], the Activity result is recorded as “antioxidant”. Demethoxy curcumin: the Activity entry is reported as “antioxidant”. As to `COc1cc(/C=C/C(=O)/C=C(O)\C=C\c2ccc(OC)c(OC)c2)ccc1O` [Methylcurcumin], the Activity entry is “L. amazonensis”. Turning to `COc1cc(/C=C/C(=O)CC(=O)/C=C/c2ccc([O-])c(OC)c2)ccc1[O-].[Na+].[Na+]` [Sodium curcuminate], the Activity entry is on record as “anti-inflammatory”. For `CC(C)=CC(=O)CC(C)c1ccc(C)cc1` (centres unmarked) [Ar-turmerone], the Activity result is “snakebite”.
